Series [1] concerns antiovalbumin antibody. The experiment in a line: Immunostimulant (immunoadjuvant) activity: production of humoral antibody. To be noted: guinea pigs bled 4 weeks after sensitization with 1 mg ovalbumin + 100 μg test compound. Type of series: in vivo, Hartley strain guinea pigs. As for the experimental part: (§1) The animals sensitized were prepared as follows. Groups of 5 female Hartley strain guinea pigs, weighing 200 to 300 g, were injected in the left hind food-pad with 0.2 ml of a water-in-oil emulsion containing 1 mg of crystalline ovalbumin as antigen and 100 μg of test compound. The water-in-oil emulsion consisted of Drakeol 6VR (Pennsylvania Refining Co., U.S.A.), Arlacel A (Atlas Chemical Industries Inc., U.S.A.) and 1/75M phosphate-buffered physiological saline (pH 7.0) in a ratio of 4:1:5 by volume. Control guinea pigs were injected with a water-in-oil emulsion of similar composition containing the antigen but not test compound (Freund's incomplete adjuvant).
To test for the enhancement of production of humoral antibody, 4 weeks after the sensitization the guinea pigs were bled by cardiac puncture. The levels of antiovalbumin antibody nitrogen were measured quantitatively using a spectrophotometric technique.

Series [2] can be described thus: Solubility (physicochemical properties).
The test system of series [3] is delayed-type hypersensitivity to ovalbumin. The experiment in a line: Immunostimulant (immunoadjuvant) activity: skin reaction. To be noted: extent of induration; guinea pigs sensitized with 1 mg ovalbumin + 100 μg test compound; intradermal ovalbumin 3 weeks after sensitization, measured after 48 hours. Type of series: in vivo, Hartley strain guinea pigs. As for the experimental part: as §1
To test for the induction of delayed-type hypersensitivity to ovalbumin, 3 weeks after the sensitization the guinea pigs were given an intradermal injection of ovalbumin solution (0.1 mg/0.1 ml saline) at one hind foot-pad shaved with a clipper. The size of induration was measured after 48 hours. The extent of induration was calculated by the formula as described in Biken Journal, 20, pages 95-103 (1977).

In series [4] the test system is Pseudomonas aeruginosa No. 12. In words: Enhancement of nonspecific resistance to bacterial infections. Type of series: in vivo, Std-ddY strain mice. The conditions noted are these: survivors 7 days after infection, mice. As for the experimental part: Male Std-ddY strain mice weighing about 23 g were used. Test compounds were dissolved in physiological saline and intravenously administered to the animals 72, 48 and 24 hours before the intraperitoneal infection with Pseudomonas aeruginosa No. 12 (inoculum size: 2×10^6 cells/mouse). The number of survivors were recorded 7 days after the infection.

Series [5] relates to delayed-type hypersensitivity to ovalbumin. In words: Immunostimulant (immunoadjuvant) activity: corneal response. Type of series: in vivo, Hartley strain guinea pigs. The conditions noted are these: grade 0 to 3.0; guinea pigs sensitized with 1 mg ovalbumin + 100 μg test compound in water-in-oil emulsion; intracorneal ovalbumin 2 weeks after sensitization, read after 48 hours. As for the experimental part: as §1
To test for the induction of delayed-type hypersensitivity to ovalbumin, that is, the enhancement of cell-mediated immunity, 2 weeks after the sensitization the guinea pigs were given an intracorneal injection of ovalbumin solution (20 mg/ml saline) to make a transient disc of opacity of approximately 5 mm in diameter. The eyes were examined after 48 hours and the extent and degree of corneal opacity were recorded. The reactions were graded from 3.0, for a strong reaction where the whole cornea was thickened, opaque and grayish-white, to 1.0, where slight opacity was observed. When no visible difference from the uninjected eye was detected, the reaction was graded as 0.

The mark [6] stands for this setting: dose 0.0125 mg/kg i.v. 72, 48 and 24 hours before i.p. infection.
[7] abbreviates: dose 0.05 mg/kg i.v. 72, 48 and 24 hours before i.p. infection.
[8] abbreviates: dose 0.2 mg/kg i.v. 72, 48 and 24 hours before i.p. infection.
Setting [9] is: dose 0.8 mg/kg i.v. 72, 48 and 24 hours before i.p. infection.
[10] abbreviates: dose 3.1 mg/kg i.v. 72, 48 and 24 hours before i.p. infection.
[11] abbreviates: dose 12.5 mg/kg i.v. 72, 48 and 24 hours before i.p. infection.

Consider `CC(=O)N[C@H]1[C@H](O[C@H]2[C@H](O[C@H](C)C(=O)N[C@@H](C)C(=O)N[C@H](CCC(=O)N[C@@H](CCC[C@@H](N)C(N)=O)C(=O)O)C(N)=O)[C@@H](NC(C)=O)C(O)O[C@@H]2CO)O[C@H](CO)[C@@H](O)[C@@H]1O` (stereo partly drawn) [GMP3 -A, β-N-acetylglucosaminyl-(1→4)-N-acetylmuramyl-L-alanyl-D-isoglu taminyl-(L)-meso-2,6-diaminopimelic acid-(D)-amide], for which the Antibody nitrogen in series [1] came to 350 ± 50 µg/mL. Besides, the Solubility entry in series [2] (in diethyl ether) is reported as “insoluble”; in series [2] (in water, 50% C1-3 alcohol), “Soluble”. Also, the Skin reaction in series [3] is reported as 2.5. Moreover, the “Number of survivors/total number of test animals” value is reported as 7/16 in series [4] (dose 0.0031 mg/kg i.v. 72, 48 and 24 hours before i.p. infection); 9/16 in series [4] (setting [6]); 9/16 in series [4] (setting [7]); 8/16 in series [4] (setting [8]); 10/16 in series [4] (setting [9]); 14/16 in series [4] (setting [10]). Further, the “Number of survivors/total number of test animals” value in series [4] (setting [11]) is 16/16. Also, in series [5], the Corneal response came to 2.2.
As for `CC(=O)N[C@H]1[C@H](O[C@H]2[C@H](O[C@H](C)C(=O)N[C@@H](C)C(=O)N[C@H](CCC(=O)N[C@@H](CCC[C@@H](N)C(N)=O)C(=O)N[C@H](C)C(=O)O)C(N)=O)[C@@H](NC(C)=O)C(O)O[C@@H]2CO)O[C@H](CO)[C@@H](O)[C@@H]1O` (stereo partly drawn) [GMP4 -A, β-N-acetylglucosaminyl-(1→4)-N-acetylmuramyl-L-alanyl-D-isoglu taminyl-(L)-meso-2,6-diaminopimelic acid-(D)-amide-(L)-D-alanine], in series [1], the Antibody nitrogen was 399 ± 90 µg/mL. In addition, the Solubility entry is reported as “insoluble” in series [2] (in diethyl ether) and “Soluble” in series [2] (in water, 50% C1-3 alcohol). The Skin reaction in series [3] is given as 3.7. For the same compound, the “Number of survivors/total number of test animals” value in series [4] (setting [6]) is 6/16; in series [4] (setting [7]), 6/16; in series [4] (setting [8]), 4/16; in series [4] (setting [9]), 7/16; in series [4] (setting [10]) it was 7/16; in series [4] (setting [11]), 16/16. The Corneal response in series [5] is listed as 2.0.
“β-N-acetylglucosaminyl-(1→4)-N,6-O-diacetylmuramyl-L-alanyl-D- isoglutaminyl-(L)-meso-2,6-diaminopimelic acid-(D)-amide-(L)-D-alanine [GMP4 -B]”: the Antibody nitrogen in series [1] came to 216 ± 57 µg/mL. The Skin reaction in series [3] amounted to 3.7. Moreover, the “Number of survivors/total number of test animals” value in series [4] (setting [6]) is recorded as 4/16; in series [4] (setting [7]) it was 4/16; in series [4] (setting [8]) it was 6/16; in series [4] (setting [9]) it was 9/16; in series [4] (setting [10]), 10/16; in series [4] (setting [11]), 16/16. For the same compound, the Corneal response in series [5] is 2.2.
For the compound “β-N-acetylglucosaminyl-(1→4)-N,6O-diacetylmuramyl-L-alanyl-D-i soglutaminyl-(L)-meso-2,6-diaminopimelic acid-(D)-amide [GMP3 -B]”, the Antibody nitrogen in series [1] stood at 250 ± 40 µg/mL. In addition, the Solubility result is “insoluble” in series [2] (in diethyl ether) and “Soluble” in series [2] (in water, 50% C1-3 alcohol). For the same compound, the Skin reaction in series [3] turned out to be 3.5. Also, the “Number of survivors/total number of test animals” value in series [4] (setting [6]) is 5/16; in series [4] (setting [7]) it was 7/16; in series [4] (setting [8]), 9/16; in series [4] (setting [9]), 10/16; in series [4] (setting [10]), 12/16; in series [4] (setting [11]) it was 16/16. Besides, the Corneal response in series [5] was 2.4.

For the origin of these results see patent US4515891A, “Process for the production of disaccharide-tripeptide and disaccharide-tetrapeptide” (priority 1982, dated 1985).
